SMILES strings stand for the structures. Where two headings read alike, the source gives them in different places.

The values that follow come from patent US10738056B2 (Aduro BioTech, Inc., priority 2017, dated 2020).

Test [1] deals with Human cGAS amino acids 155-522 (Homo sapiens (Human), UniProt Q8N884). Briefly: cGAS biochemical activity assay (ATP remaining, Kinase-Glo Max luminescence). (In general: In Kinase-Glo more light means more ATP remaining.)
Test [2] has as its system cGAS/STING pathway in THP1 cells. Kind of test: THP1 cell-based cGAS/STING pathway activity assay (IRF-3-linked luciferase reporter). Put shortly:
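THP1 cells carrying an IRF-3-driven luciferase reporter were read across a range of compound concentrations, and IC50 values were derived from these concentration responses; the assay upper limit was 100 μM.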
On the technique in general: A reporter such as luciferase makes a cellular process visible.

The mark [3] stands for this setting: human cGAS 155-522, ATP remaining (Kinase-Glo Max), read-out: cGAS IC50.

Chain of Human cGAS amino acids 155-522 (Q8N884 157-522): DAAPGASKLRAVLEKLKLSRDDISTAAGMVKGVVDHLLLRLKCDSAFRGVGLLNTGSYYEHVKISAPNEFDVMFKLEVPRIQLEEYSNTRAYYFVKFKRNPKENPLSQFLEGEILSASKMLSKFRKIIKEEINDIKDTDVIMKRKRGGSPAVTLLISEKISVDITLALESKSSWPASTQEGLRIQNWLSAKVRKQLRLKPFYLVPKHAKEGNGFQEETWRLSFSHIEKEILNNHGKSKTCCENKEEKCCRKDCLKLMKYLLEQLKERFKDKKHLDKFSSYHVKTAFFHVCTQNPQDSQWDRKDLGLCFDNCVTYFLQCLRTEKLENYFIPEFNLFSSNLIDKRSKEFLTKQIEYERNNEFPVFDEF

Regarding `COc1cc(CN)cc2oc(-c3c(C)[nH]c4c(-c5ccccc5)c(C(F)(F)F)nn4c3=O)nc12` [Compound C1135, 6-(6-(aminomethyl)-4-methoxybenzo[d]oxazol-2-yl)-5-methyl-3-phenyl-2-(trifluoromethyl)pyrazolo[1,5-a]pyrimidin-7(4H)-one], the IC50 (commonly the concentration that gives 50% inhibition) in test [1] (setting [3]) was < 20 µM; in test [2] (Homo sapiens, THP-1), > 100 µM.

In the case of `Cc1[nH]c2c(-c3ccccc3)c(C(F)(F)F)nn2c(=O)c1-c1ncc(C2CCCC2)o1` [Compound C1010, 6-(5-cyclopentyloxazol-2-yl)-5-methyl-3-phenyl-2-(trifluoromethyl)pyrazolo[1,5-a]pyrimidin-7(4H)-one], the IC50 in test [1] (setting [3]) was > 250 µM; in test [2] (Homo sapiens, THP-1) it was < 20 µM.

As to `Cc1[nH]c2c(-c3ccccc3)c(C#N)nn2c(=O)c1-c1nc2cccc(N)c2o1` [Compound C1230, 6-(7-aminobenzo[d]oxazol-2-yl)-5-methyl-7-oxo-3-phenyl-4,7-dihydropyrazolo[1,5-a]pyrimidine-2-carbonitrile], the IC50 in test [1] (setting [3]) was < 20 µM; in test [2] (Homo sapiens, THP-1) it was > 100 µM.

On to `CC(=O)NCCOc1cccc2oc(-c3c(C)[nH]c4c(-c5ccccc5)c(C(F)(F)F)nn4c3=O)nc12` [Compound C1062, N-(2-((2-(5-methyl-7-oxo-3-phenyl-2-(trifluoromethyl)-4,7-dihydropyrazolo[1,5-a]pyrimidin-6-yl)benzo[d]oxazol-4-yl)oxy)ethyl)acetamide], for which the IC50 is < 20 µM in test [1] (setting [3]) and > 100 µM in test [2] (Homo sapiens, THP-1).

For the compound `Cc1[nH]c2c(-c3ccccc3)c(C(F)(F)F)nn2c(=O)c1-c1nc2c(o1)CCCC2=O` [Compound C1033, 2-(5-methyl-7-oxo-3-phenyl-2-(trifluoromethyl)-4,7-dihydropyrazolo[1,5-a]pyrimidin-6-yl)-6,7-dihydrobenzo[d]oxazol-4(5H)-one], the IC50 in test [1] (setting [3]) is < 20 µM; in test [2] (Homo sapiens, THP-1), > 100 µM.

With `COc1cc(CO)cc2oc(-c3c(C)[nH]c4c(-c5ccccc5)c(C#N)nn4c3=O)nc12` [Compound C1203, 6-(6-(hydroxymethyl)-4-methoxybenzo[d]oxazol-2-yl)-5-methyl-7-oxo-3-phenyl-4,7-dihydropyrazolo[1,5-a]pyrimidine-2-carbonitrile], the IC50 in test [1] (setting [3]) is < 20 µM; in test [2] (Homo sapiens, THP-1), > 100 µM.

With `Cc1[nH]c2c(-c3ccccc3)c(C(F)(F)F)nn2c(=O)c1-c1nc2c(OCCNS(C)(=O)=O)cccc2o1` [Compound C1066, N-(2-((2-(5-methyl-7-oxo-3-phenyl-2-(trifluoromethyl)-4,7-dihydropyrazolo[1,5-a]pyrimidin-6-yl)benzo[d]oxazol-4-yl)oxy)ethyl)methanesulfonamide], the IC50 was < 20 µM in test [1] (setting [3]) and > 100 µM in test [2] (Homo sapiens, THP-1).

Consider `COc1ccccc1NC(=O)Cc1c(C)[nH]c2c(-c3ccccc3)c(C(F)(F)F)nn2c1=O` [Compound B1010, N-(2-methoxyphenyl)-2-(5-methyl-7-oxo-3-phenyl-2-(trifluoromethyl)-4,7-dihydropyrazolo[1,5-a]pyrimidin-6-yl)acetamide], for which the IC50 lay within 20 to 250 µM in test [1] (setting [3]) and 20 to 100 µM in test [2] (Homo sapiens, THP-1).

Take `CO[C@@H]1CCCC1c1nnc(-c2c(C)[nH]c3c(-c4ccccc4)c(C(F)(F)F)nn3c2=O)o1` (stereo partly shown) [D1049 Iso-2]: the IC50 in test [1] (setting [3]) is < 20 µM; in test [2] (read-out: THP-1 IC50) it was > 100 µM.

Take `COc1c(Cl)ccc2oc(-c3c(C)[nH]c4c(-c5ccccc5)c(C#N)nn4c3=O)nc12` [Compound C1206, 6-(5-chloro-4-methoxybenzo[d]oxazol-2-yl)-5-methyl-7-oxo-3-phenyl-4,7-dihydropyrazolo[1,5-a]pyrimidine-2-carbonitrile]: the IC50 was < 20 µM in test [1] (setting [3]) and > 100 µM in test [2] (Homo sapiens, THP-1).

Regarding `Cc1[nH]c2c(-c3ccccc3)c(C(F)(F)F)nn2c(=O)c1C(=O)Nc1ccccc1N` [Compound A1006, N-(2-aminophenyl)-5-methyl-7-oxo-3-phenyl-2-(trifluoromethyl)-4,7-dihydropyrazolo[1,5-a]pyrimidine-6-carboxamide], the IC50 in test [1] (setting [3]) was < 20 µM; in test [2] (Homo sapiens, THP-1), > 100 µM.

For the compound `COc1cccc2oc(-c3c(C)[nH]c4c(-c5ccccc5)c(C#N)nn4c3=O)nc12` [Compound C1051, 6-(4-methoxybenzo[d]oxazol-2-yl)-5-methyl-7-oxo-3-phenyl-4,7-dihydropyrazolo[1,5-a]pyrimidine-2-carbonitrile], the IC50 is < 20 µM in test [1] (setting [3]) and 20 to 100 µM in test [2] (Homo sapiens, THP-1).

As to `COc1cccc2oc(-c3c(COCC(F)F)[nH]c4c(-c5ccccc5)c(C(F)(F)F)nn4c3=O)nc12` [Compound C1232, 5-((2,2-difluoroethoxy)methyl)-6-(4-methoxybenzo[d]oxazol-2-yl)-3-phenyl-2-(trifluoromethyl)pyrazolo[1,5-a]pyrimidin-7(4H)-one], the IC50 in test [1] (setting [3]) was < 20 µM; in test [2] (Homo sapiens, THP-1) it was 20 to 100 µM.

As to `C=Cc1nn2c(=O)c(-c3nc4c(OC)cccc4o3)c(C)[nH]c2c1-c1ccccc1` [Compound C1241, 6-(4-methoxybenzo[d]oxazol-2-yl)-5-methyl-3-phenyl-2-vinylpyrazolo[1,5-a]pyrimidin-7(4H)-one], the IC50 in test [1] (setting [3]) is < 20 µM; in test [2] (Homo sapiens, THP-1) it was < 20 µM.

As for `Cc1[nH]c2c(-c3ccccc3)c(C(F)(F)F)nn2c(=O)c1-c1nc2ccccc2n1CC(F)(F)F` [Compound C1231, 5-methyl-3-phenyl-6-(1-(2,2,2-trifluoroethyl)-1H-benzo[d]imidazol-2-yl)-2-(trifluoromethyl)pyrazolo[1,5-a]pyrimidin-7(4H)-one], the IC50 in test [1] (setting [3]) is 20 to 250 µM; in test [2] (Homo sapiens, THP-1), < 20 µM.

For `Cc1[nH]c2c(-c3ccccc3)c(C(F)(F)F)nn2c(=O)c1C(=O)Nc1cccc2c1OCC2` [Compound A1101, N-(2,3-dihydrobenzofuran-7-yl)-5-methyl-7-oxo-3-phenyl-2-(trifluoromethyl)-4,7-dihydropyrazolo[1,5-a]pyrimidine-6-carboxamide], the IC50 in test [1] (setting [3]) was < 20 µM; in test [2] (Homo sapiens, THP-1), < 20 µM.

On to `Cc1[nH]c2c(-c3ccccc3)c(C(F)(F)F)nn2c(=O)c1-c1nc2ncccc2o1` [Compound C1030, 5-methyl-6-(oxazolo[4,5-b]pyridin-2-yl)-3-phenyl-2-(trifluoromethyl)pyrazolo[1,5-a]pyrimidin-7(4H)-one], for which the IC50 is < 20 µM in test [1] (setting [3]) and > 100 µM in test [2] (Homo sapiens, THP-1).

On to `COc1cccc(NC(=O)c2c(C)[nH]c3c(-c4ccccc4)c(C(F)(F)F)nn3c2=O)n1` [Compound A1064, N-(6-methoxypyridin-2-yl)-5-methyl-7-oxo-3-phenyl-2-(trifluoromethyl)-4,7-dihydropyrazolo[1,5-a]pyrimidine-6-carboxamide], for which the IC50 in test [1] (setting [3]) was < 20 µM; in test [2] (Homo sapiens, THP-1) it was 20 to 100 µM.

For `COc1cccc2oc(-c3c(C(=O)NC4CCOCC4)[nH]c4c(-c5ccccc5)c(C(F)(F)F)nn4c3=O)nc12` [Compound C1194, 6-(4-methoxybenzo[d]oxazol-2-yl)-7-oxo-3-phenyl-N-(tetrahydro-2H-pyran-4-yl)-2-(trifluoromethyl)-4,7-dihydropyrazolo[1,5-a]pyrimidine-5-carboxamide], the IC50 in test [1] (setting [3]) is < 20 µM; in test [2] (Homo sapiens, THP-1) it was > 100 µM.

Turning to `Cc1[nH]c2c(-c3ccccc3)c(C(F)(F)F)nn2c(=O)c1C(=O)NS(=O)(=O)C1CCCCC1` [Compound A1124, N-(cyclohexylsulfonyl)-5-methyl-7-oxo-3-phenyl-2-(trifluoromethyl)-4,7-dihydropyrazolo[1,5-a]pyrimidine-6-carboxamide], the IC50 in test [1] (setting [3]) is < 20 µM; in test [2] (Homo sapiens, THP-1) it was > 100 µM.

Consider `Cc1[nH]c2c(-c3ccccc3)c(C#N)nn2c(=O)c1-c1nc2ccc(N)c(Cl)c2o1` [Compound C1271, 6-(6-amino-7-chlorobenzo[d]oxazol-2-yl)-5-methyl-7-oxo-3-phenyl-4,7-dihydropyrazolo[1,5-a]pyrimidine-2-carbonitrile], for which the IC50 in test [1] (setting [3]) is < 20 µM; in test [2] (Homo sapiens, THP-1), > 100 µM.

On to `COc1cccc2c(=O)[nH]c(-c3c(C)[nH]c4c(-c5ccccc5)c(C(F)(F)F)nn4c3=O)nc12` [Compound C1025, 8-methoxy-2-(5-methyl-7-oxo-3-phenyl-2-(trifluoromethyl)-4,7-dihydropyrazolo[1,5-a]pyrimidin-6-yl)quinazolin-4(3H)-one], for which the IC50 was < 20 µM in test [1] (setting [3]) and > 100 µM in test [2] (Homo sapiens, THP-1).

Take `Cc1[nH]c2c(-c3ccccc3)c(C(F)(F)F)nn2c(=O)c1-c1nc2c(OC(=O)N(C)C)cccc2o1` [Compound C1088, 2-(5-methyl-7-oxo-3-phenyl-2-(trifluoromethyl)-4,7-dihydropyrazolo[1,5-a]pyrimidin-6-yl)benzo[d]oxazol-4-yl dimethylcarbamate]: the IC50 in test [1] (cGAS IC50, human cGAS 155-522, ATP remaining (Kinase-Glo Max)) was < 20 µM; in test [2] (Homo sapiens, THP-1), 20 to 100 µM.

Consider `Cc1[nH]c2c(-c3ccccc3)c(C(F)(F)F)nn2c(=O)c1C(=O)Nc1cn[nH]c1` [Compound A1068, 5-methyl-7-oxo-3-phenyl-N-(1H-pyrazol-4-yl)-2-(trifluoromethyl)-4,7-dihydropyrazolo[1,5-a]pyrimidine-6-carboxamide], for which the IC50 in test [1] (setting [3]) was 20 to 250 µM; in test [2] (Homo sapiens, THP-1), > 100 µM.

For the compound `COc1cccc2oc(-c3c(COCCO)[nH]c4c(-c5ccccc5)c(C(F)(F)F)nn4c3=O)nc12` [Compound C1226, 5-((2-hydroxyethoxy)methyl)-6-(4-methoxybenzo[d]oxazol-2-yl)-3-phenyl-2-(trifluoromethyl)pyrazolo[1,5-a]pyrimidin-7(4H)-one], the IC50 in test [1] (setting [3]) is < 20 µM; in test [2] (Homo sapiens, THP-1), 20 to 100 µM.

For `Cc1[nH]c2c(-c3ccccc3)c(C(F)(F)F)nn2c(=O)c1-c1nc2c([S+](C)[O-])cccc2o1` (stereo not shown) [Compound C1097, 5-methyl-6-(4-(methylsulfinyl)benzo[d]oxazol-2-yl)-3-phenyl-2-(trifluoromethyl)pyrazolo[1,5-a]pyrimidin-7(4H)-one], the IC50 in test [1] (setting [3]) was < 20 µM; in test [2] (Homo sapiens, THP-1), > 100 µM.
